Laboratory results published in patent publication US6127357A, “N-((phenyl, benzodioxinyl or N-heteroarylpiperazinyl)alkyl)-N-(N-heteroaryl)substituted carboxamides” (John Wyeth & Brother, Ltd., priority 1991, dated 2000).

What was measured:
5-HT1A receptor [1] = molecular target: T1, 5-HT1A receptor (Rattus norvegicus, UniProt P19327); assay: 5-HT1A receptor binding activity in rat hippocampal membrane homogenate
T1 construct: rat hippocampal membrane homogenate; from tissue; host or cells: rat hippocampus membrane homogenate
T1 sequence (P19327 1-422): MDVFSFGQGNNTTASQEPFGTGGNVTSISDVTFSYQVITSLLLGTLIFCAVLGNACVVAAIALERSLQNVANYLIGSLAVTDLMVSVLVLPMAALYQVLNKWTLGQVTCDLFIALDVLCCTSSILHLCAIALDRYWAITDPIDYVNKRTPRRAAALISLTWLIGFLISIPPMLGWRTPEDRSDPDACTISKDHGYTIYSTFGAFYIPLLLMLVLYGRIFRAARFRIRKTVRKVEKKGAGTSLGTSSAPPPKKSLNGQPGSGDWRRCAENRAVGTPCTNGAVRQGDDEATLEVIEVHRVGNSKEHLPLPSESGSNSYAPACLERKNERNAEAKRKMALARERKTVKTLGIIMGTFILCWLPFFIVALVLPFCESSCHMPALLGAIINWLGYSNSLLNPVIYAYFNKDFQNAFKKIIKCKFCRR
Description: The compounds of the invention were tested for 5-HT1A receptor binding activity in rat hippocampal membrane homogenate by the method of B S Alexander and M D Wood, J Pharm Pharmacol, 1988, 40, 888-891.

5-HT1A receptor [2] = molecular target: T2, 5-HT1A receptor (Cavia porcellus, UniProt A0A286Y074); assay: 5-HT1A receptor antagonism: antagonism of 5-carboxamidotryptamine in the guinea-pig ileum in vitro
T2 construct: guinea-pig ileum in vitro; from tissue; host or cells: guinea-pig ileum
T2 sequence (A0A286Y074 1-421): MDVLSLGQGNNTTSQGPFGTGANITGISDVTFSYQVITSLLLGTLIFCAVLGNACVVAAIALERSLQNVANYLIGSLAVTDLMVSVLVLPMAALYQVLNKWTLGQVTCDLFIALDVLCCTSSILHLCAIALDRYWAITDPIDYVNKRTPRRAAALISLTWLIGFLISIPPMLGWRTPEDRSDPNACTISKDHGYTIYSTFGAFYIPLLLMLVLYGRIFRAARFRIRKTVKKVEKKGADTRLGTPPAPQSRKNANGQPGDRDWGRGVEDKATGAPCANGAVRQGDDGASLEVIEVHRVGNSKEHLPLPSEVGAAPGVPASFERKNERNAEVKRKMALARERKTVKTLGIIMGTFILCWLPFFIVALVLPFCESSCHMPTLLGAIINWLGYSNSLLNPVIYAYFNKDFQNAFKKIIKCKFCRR
Description: The compounds are tested for 5-HT1A receptor antagonism activity in a test involving the antagonism of 5-carboxamidotryptamine in the guinea-pig ileum in vitro (based upon the procedure of Fozard et al, Br J Pharmac, 1985, 86, 601P).

Row | IC50 (5-HT1A receptor [1]) [nM] | Kb (5-HT1A receptor [2]; read-out: pA2, 5-HT1A receptor antagonism (converted)) [nM] | pA2, 5-HT1A receptor antagonism (5-HT1A receptor [2]) | Structure (SMILES)
1 | 5.8 | 15.8 | – | COc1ccccc1N1CCN(CCN(C(=O)NC2CCCCC2)c2ccccn2)CC1 [Example 4, N-Cyclohexyl-N-(2-(1-(4-(2-methoxyphenyl)piperazinyl))ethyl)-N-(2-pyridinyl)urea]
2 | 3 | – | 9.8 | O=C(C1CCCCC1)N(CCN1CCN(c2cccc3c2OCCO3)CC1)c1ccccn1 [Example 17, N-(2-(1-(4-(2,3-Dihydro-1,4-benzodioxin-5-yl)piperazinyl))ethyl)-N-(2-pyridinyl)cyclohexanecarboxamide]
